Reference: patent US11999782B2, “Therapeutic agents for the treatment of diseases associated with undesired cell proliferation” (Fundació Privada Institutció Catalana de Recerca I Estudis …, priority 2009, dated 2024)

Columns and labels:
Type in all cases: cell-based
[1] = system: normal human neuroprogenitors; experiment: Self-renewal assay of normal human neuroprogenitor neurospheres; conditions: 100 pM TGFβ1 or 20 ng/ml LIF, 7 days
Experimental: (§1) FIG. 8. Effect of TGFβ on the capacity of self-renewal of normal human neuroprogenitors. (A) Immunocytochemistry of the indicated markers was performed in human neuroprogenitor neurospheres. (B) Neurospheres of the sample of GBM1 and of human neuroprogenitors were incubated with the indicated members of the 100 pM TGFβ family for 3 hours and the mRNA levels of LIF were determined. (C, D) Neurosphere cells of normal human neuroprogenitors were incubated in the same conditions that have been described above in FIG. 1D in the presence of 100 pM TGFβ1 or 20 ng/ml LIF for 7 days and the number of newly formed neurospheres (C) and the number total of cells (D) were determined.
The U373MG and A172 cells were a generous gift from J. Rich and D. Bigner and were cultured in DMEM with 10% fetal bovine serum (FBS). The primary culture of tumor cells (PCTC) and the GBM neurospheres were generated as described (Bruna et al., (2007) Cancer Cell 11, 147-160; Gunther et al., (2008) Oncogene. May 1; 27(20):2897-909). Briefly, the samples of tumors were processed in the 30 minutes after the surgical resection. The ground pieces of the samples of human gliomas were digested with 200 U/ml collagenase I (Sigma) and 500 U/ml of DNase I (Sigma) in PBS for 2 hours at 37° C. and with constant vigorous stirring. The suspension of individual cells was filtered through a 70 μm cell filter (BD Falcon) and washed with PBS. Finally, the cells were resuspended and subsequently cultured in DMEM with 10% FBS, for the culture of PCTCs, or in neurosphere medium in the case of the GBM neurospheres. The neurospheres of normal human neuroprogenitors were generated from human embryonic cerebral cortex tissue (12-16 weeks after the conception) collected after voluntary abortions. The samples were processed and cultured as described (Poltavtseva et al. (2002) Brain Res Dev Brain Res 134, 149-154). The neurosphere medium consists of neurobasal medium (Gibco) supplemented with B27 (Gibco), L-glutamine (Gibco), penicillin/streptomycin, and growth factors (20 ng/mL EGF and 20 ng/mL FGF-2 (Peprotech)).
The self-renewal of the neurospheres was evaluated by seeding an identical number of cells at a very low density in wells of a 96-well plate. The cells were treated, in the absence of growth factors, with the indicated compounds and the total number of new neurospheres formed after 7 days in culture was counted (Lee et al. (2008) Cancer Cell 13, 69-80; Reynolds and Weiss, (1996) Dev Biol 175, 1-13; Seaberg and van der Kooy, (2002) J Neurosci 22, 1784-1793).
It was decided to assess whether this effect was specific to tumor cells or was also present in normal neuroprogenitor cells. To answer this question, neuroprogenitor cells were obtained from samples of human fetal cerebral cortex (from 12 to 16 weeks after conception). As has been previously described (Carpenter et al., 1999, Exp Neurol, 158: 265-278; Poltavtseva et al., 2002, Brain Res Dev Brain Res, 134: 149-154; Wright et al., 2003, J Neurochem, 86: 179-195), human neuroprogenitors generated neurospheres when they were grown in serum-free medium supplemented with EGF and FGF and these neurospheres expressed Musashi-1, Sox2 and Nestin similarly to GBM neurospheres (FIG. 8A). First, it was determined if TGFβ induced LIF in normal human neuroprogenitors. […] In fact, the neurospheres treated with TGFβ were smaller and the total number of cells had decreased due to the presence of TGFβ (FIG. 8C, 8D). On the other hand, LIF increased the number and size of the newly formed neurospheres as well as the total number of cells (FIG. 8C, 8D) according to previous articles (Bauer and Patterson, 2006; Wright et al., 2003). Thus, LIF has the same effect on the self-renewal in GBM and normal neurospheres. On the contrary, there is a difference in the effect of TGFβ on the capacity for self-renewal of normal and tumor neurospheres due to the incapacity of TGFβ to induce LIF normal in neuroprogenitors.

[2] = system: LIF expression in normal human neuroprogenitors; experiment: LIF mRNA in neurospheres of normal human neuroprogenitors; conditions: 100 pM, 3 hours, compared with GBM neurospheres
Experimental: as §1
The U373MG and A172 cells were a generous gift from J. Rich and D. Bigner and were cultured in DMEM with 10% fetal bovine serum (FBS). The primary culture of tumor cells (PCTC) and the GBM neurospheres were generated as described (Bruna et al., (2007) Cancer Cell 11, 147-160; Gunther et al., (2008) Oncogene. May 1; 27(20):2897-909). Briefly, the samples of tumors were processed in the 30 minutes after the surgical resection. The ground pieces of the samples of human gliomas were digested with 200 U/ml collagenase I (Sigma) and 500 U/ml of DNase I (Sigma) in PBS for 2 hours at 37° C. and with constant vigorous stirring. The suspension of individual cells was filtered through a 70 μm cell filter (BD Falcon) and washed with PBS. […]
qRT-PCR was performed using Taqman probes from Applied Biosystems, according to the manufacturer's recommendations. The reactions were carried out in a ABI 7000 sequence detector (Perkin Elmer) and the results were expressed as the fold change calculated by means of the DDCt method relative to the control sample or the first quantified sample. […]
It was decided to assess whether this effect was specific to tumor cells or was also present in normal neuroprogenitor cells. […] First, it was determined if TGFβ induced LIF in normal human neuroprogenitors. […]

[3] = system: LIF expression in mouse neuroprogenitors; experiment: LIF induction in mouse neuroprogenitors; conditions: from mouse embryos or the subventricular area of adult mice; data not shown

Substance: LIF: recombinant leukemia inhibitory factor, an IL-6 type cytokine (Chemicon)
- number of newly formed neurospheres (normal neuroprogenitors) [1]: increased
- size of neurospheres (normal neuroprogenitors) [1]: increased
- total number of cells (normal neuroprogenitors) [1]: increased

Substance: TGFβ: TGFβ1 (R&D Systems), used at 100 pM according to the figure legends
- induction of LIF mRNA in normal human neuroprogenitor neurospheres [2]: did not induce LIF
- induction of LIF in mouse neuroprogenitors [3]: did not induce LIF
- number of newly formed neurospheres (normal neuroprogenitors) [1]: did not increase
- size of neurospheres (normal neuroprogenitors) [1]: smaller
- total number of cells (normal neuroprogenitors) [1]: decreased
